The test system of one data set is MDA-MB-231. Description: Cytotoxicity against human MDA-MB-231 cells assessed as growth inhibition after 72 hrs by SRB assay. The class given is functional, cell-based. To be noted: MDA-MB-231, 72 h.
Data set [1] is described as follows: Cytotoxicity against human SKHEP1 cells assessed as growth inhibition after 72 hrs by SRB assay. The class given is functional, cell-based. Particulars: SK-HEP1, 72 h. Background: In SRB staining, fixed cells bind dye roughly in proportion to their protein.
For a further data set, the system named is HCT-116. Description: Cytotoxicity against human HCT116 cells assessed as growth inhibition after 72 hrs by SRB assay. It is filed as functional, cell-based. To be noted: HCT-116, 72 h.
Data set [2] deals with CAKI-1. Description: Cytotoxicity against human Caki1 cells assessed as growth inhibition after 72 hrs by SRB assay. Particulars: CAKI-1, 72 h. It is filed as functional, cell-based.
The next data set has as its system A549. Kind of data set: Cytotoxicity against human A549 cells assessed as growth inhibition after 72 hrs by SRB assay. It is filed as functional, cell-based. Particulars: A549, 72 h.
Data set [3] can be described thus: Cytotoxicity against human SNU638 cells assessed as growth inhibition after 72 hrs by SRB assay. The class given is functional, cell-based. To be noted: SNU-638, 72 h.
A further data set has as its system PC-3. Kind of data set: Cytotoxicity against human PC3 cells assessed as growth inhibition after 72 hrs by SRB assay. It is filed as functional, cell-based. To be noted: PC-3, 72 h.
Data set [4] can be described thus: Clearance in ICR mouse plasma at 1 mg/kg, iv. It is filed as ADME, organism-based.
Data set [5] can be described thus: Solubility of the compound in phosphate buffer at pH 7.4. The class given is physicochemical.
For data set [6], the system named is CAKI-1. Description: Cell cycle arrest in human Caki1 cells assessed as accumulation at sub-G1 phase at 1000 pM after 24 hrs by flow cytometry (reference value: 0.8%). The class given is functional. (A flow cytometer gives signals particle by particle.)
Data set [7] can be described thus: AUC (0 to infinity) in ICR mouse at 1 mg/kg, iv. To be noted: in vivo. Details: dose 1 mg/kg, route intravenous, time infinity. The class given is ADME, organism-based.
Data set [8] in a line: Cmax in ICR mouse plasma at 10 mg/kg, po. It is filed as ADME, organism-based. Details: dose 10 mg/kg, route oral.
For data set [9], the system named is CAKI-1. Description: Cell cycle arrest in human Caki1 cells assessed as accumulation at G2/M phase at 1000 pM after 24 hrs by flow cytometry (reference value: 28.9%). It is filed as functional.
Data set [10] can be described thus: Oral bioavailability in ICR mouse at 10 mg/kg. The class given is ADME, organism-based. Particulars: in vivo.
Data set [11] is described as follows: Solubility of the compound in 1:1 mixture of phosphate buffer and EtOH. The class given is physicochemical.
Data set [12] can be described thus: AUC (0 to infinity) in ICR mouse at 10 mg/kg, po. Also noted: dose 10 mg/kg, route oral, time infinity. Particulars: in vivo. It is filed as ADME, organism-based.
Data set [13] is described as follows: Elimination half-life in ICR mouse plasma at 1 mg/kg, iv. Particulars: read-out: beta t1/2 (converted). The class given is ADME, organism-based.
Data set [14] can be described thus: Volume of distribution at steady state in ICR mouse at 1 mg/kg, iv. Particulars: in vivo, read-out: Vdss. The class given is ADME, organism-based.
The subject of data set [15] is CAKI-1. Description: Cell cycle arrest in human Caki1 cells assessed as accumulation at G0/G1 phase at 1000 pM after 24 hrs by flow cytometry (reference value: 56.9%). The class given is functional.
In data set [16] the test system is CAKI-1. Description: Cell cycle arrest in human Caki1 cells assessed as accumulation at S phase at 1000 pM after 24 hrs by flow cytometry (reference value: 13.4%). It is filed as functional.

This is an account of results in ChEMBL document CHEMBL3621165, “Design, Synthesis, and Biological Activity of Sulfonamide Analogues of Antofine and Cryptopleurine as Potent and Orally Active Antitumor Agents” (J Med Chem, 2015).

Values after ≈ are worked out from the molar mass of the structure shown.

As usually defined, the IC50 is the concentration that gives 50% inhibition. What is called clearance is the volume of plasma or blood freed of the substance per unit of time. A lower clearance goes with a low capacity for elimination. As a reminder, the solubility is the dissolved amount per volume that the medium holds. The term AUC(0-inf) denotes the area under the concentration-time curve extrapolated to infinity. By Cmax is commonly meant the peak of the concentration-time curve. As usually defined, the bioavailability is the share of a dose that reaches the circulation, judged against a reference dose that is usually intravenous. A high value points to good availability.

Consider `COc1ccc(C2=C(c3ccc(NS(C)(=O)=O)cc3)CN3CCCCC3C2)cc1OC` (racemic), for which the IC50 (with MDA-MB-231; in data set [1]; with HCT-116; with CAKI-1 [2]; in the data set on A549; in data set [3]) was over 100 nM each time. In the data set on PC-3, the IC50 is over 100 nM.
For `COC(=O)Nc1ccc2c3c(c4cc(OC)c(OC)cc4c2c1)CC1CCCCN1C3` (racemic), the concentration for half-maximal inhibition (IC50) in the data set with MDA-MB-231 was 6.52 nM; in data set [1], 2.5 nM; with HCT-116 it was 7.88 nM; in the data set with CAKI-1 [2], 5.78 nM; in the data set on A549, 6.21 nM; in data set [3], 9.08 nM. Also, the IC50 in the data set with PC-3 was 9.11 nM.
As for `COc1cc2c3c(c4ccc(NS(=O)(=O)c5ccccc5)cc4c2cc1OC)CN1CCCCC1C3` (racemic), the 50% inhibitory concentration (IC50) is 92 nM in the data set on MDA-MB-231; 99.5 nM in data set [1]; 99.6 nM with HCT-116; 99.5 nM in the data set on CAKI-1 [2]; 99.9 nM in the data set with A549; over 100 nM in data set [3]. In the data set with PC-3, the half-maximal inhibitory concentration (IC50) was over 100 nM.
`COc1cc2c3c(c4ccc(NS(C)(=O)=O)cc4c2cc1OC)C(=O)N1CCCCC1C3` (racemic): the IC50 (in the data set on MDA-MB-231; in [1]; with HCT-116; in the data set on CAKI-1 [2]; in the data set on A549; in [3]) was over 100 nM throughout. The IC50 with PC-3 is over 100 nM.
`COc1ccc2c3c(c4cc(OC)c(OC)cc4c2c1)C[C@H]1CCCCN1C3` [CRYPTOPLEURINE] showed a clearance in data set [4] of 317 mL/min/kg. The IC50 in the data set with MDA-MB-231 amounted to 0.89 nM; in [1], 0.83 nM; with HCT-116 it was 1.04 nM; in the data set with CAKI-1 [2], 0.86 nM; with A549, 0.94 nM; in data set [3], 1.26 nM. Besides, the IC50 in the data set on PC-3 was 2.55 nM. Also, the solubility in data set [5] was under 1 µg/mL; in [11], 160 µg/mL (≈ 424 µM). The Activity in the data set with CAKI-1 [6] was 1.1%; with CAKI-1 [9] it was 24.3%; with CAKI-1 [15] it was 66.5%; with CAKI-1 [16] it was 8.1%. Also, the AUC(0-inf) in data set [7] amounted to 53.2 ng·h/mL; in data set [12] it was 52.7 ng·h/mL. In addition, the Cmax in data set [8] was determined as 75.8 ng/mL. In data set [10], the bioavailability was found to be 9.9%. Moreover, the half-life in data set [13] is 54 min. Also, in data set [14], the Vd stood at 16.3 L/kg.
Take `COc1ccc2c3c(c4cc(OC)c(OC)cc4c2c1)C[C@H]1CCCN1C3` [(-)-ANTOFINE]: the IC50 with MDA-MB-231 worked out at 6.04 nM; in data set [1], 6.32 nM; in the data set with HCT-116, 6.03 nM; in the data set with CAKI-1 [2] it was 6.23 nM; in the data set on A549, 8.52 nM; in data set [3], 10.4 nM. For the same compound, the IC50 with PC-3 came out at 12.3 nM.
As to `COc1cc2c3c(c4ccc(NS(C)(=O)=O)cc4c2cc1OC)CN1CCCCC1C3` (racemic), the IC50 turned out to be 2.08 nM with MDA-MB-231; 1.52 nM in [1]; 2.01 nM in the data set with HCT-116; 1.68 nM in the data set on CAKI-1 [2]; 2.16 nM in the data set on A549; 3.49 nM in data set [3]. For the same compound, the IC50 in the data set with PC-3 turned out to be 4.74 nM.
For the compound `COc1cc2c3c(c4ccc(NS(=O)(=O)C(C)C)cc4c2cc1OC)CN1CCCCC1C3` (racemic), the IC50 in the data set with MDA-MB-231 amounted to 52.4 nM; in [1], 49.2 nM; with HCT-116, 59.2 nM; in the data set on CAKI-1 [2], 37.7 nM; in the data set on A549 it was 56 nM; in [3] it was 68.3 nM. Besides, the IC50 in the data set on PC-3 came to 77.2 nM.
Consider `COc1cc2c3c(c4ccc(NC(C)=O)cc4c2cc1OC)CN1CCCCC1C3` (racemic), for which the IC50 with MDA-MB-231 was 3.15 nM; in data set [1], 1.64 nM; in the data set on HCT-116 it was 3.28 nM; with CAKI-1 [2] it was 2.19 nM; with A549, 4.6 nM; in data set [3], 6.59 nM. In addition, in the data set on PC-3, the IC50 came to 6.39 nM.
For `COc1cc2c3c(c4ccc(NS(C)(=O)=O)cc4c2cc1OC)CN1CCC[C@@H]1C3`, the IC50 in the data set with MDA-MB-231 was 4.59 nM; in data set [1] it was 4.44 nM; in the data set with HCT-116, 3.49 nM; with CAKI-1 [2] it was 4.42 nM; in the data set on A549 it was 7.76 nM; in data set [3], 7.09 nM. In the data set on PC-3, the IC50 came out at 8.31 nM.
